These are literature values, as cited in patent US9434994B2, “Methods for prediction of clinical outcome to epidermal growth factor receptor inhibitors by non-small cell lung cancer patients” (The Regents of the University of Colorado, a body corporate, priority 2004, dated 2016).

The test system of the data set is chemotherapy resistant NSCLC patients. Particulars: single agent; cited from earlier work.

Turning to `COc1cc2ncnc(Nc3ccc(F)c(Cl)c3)c2cc1OCCCN1CCOCC1` [gefitinib], the response rates entry is reported as “about 10%”.
